Reference: patent US10023593B2, “ALK kinase inhibitor, and preparation method and uses thereof” (BEIJING PEARL BIOTECHNOLOGY LIMITED LIABILITY COMPANY, priority 2014, dated 2018)

Experiments:
cytochrome P450 2C19 = cytochrome P450 2C19 (Homo sapiens, UniProt P33261); assay: Inhibitory activity on cytochrome P450 2C19; format: in vitro ADME; settings: no significant inhibition
cytochrome P450 1A2 = target: T1, cytochrome P450 1A2 (Homo sapiens, UniProt P05177); assay: Inhibitory activity on cytochrome P450 1A2; format: in vitro ADME; settings: no significant inhibition
T1 sequence (P05177 1-516): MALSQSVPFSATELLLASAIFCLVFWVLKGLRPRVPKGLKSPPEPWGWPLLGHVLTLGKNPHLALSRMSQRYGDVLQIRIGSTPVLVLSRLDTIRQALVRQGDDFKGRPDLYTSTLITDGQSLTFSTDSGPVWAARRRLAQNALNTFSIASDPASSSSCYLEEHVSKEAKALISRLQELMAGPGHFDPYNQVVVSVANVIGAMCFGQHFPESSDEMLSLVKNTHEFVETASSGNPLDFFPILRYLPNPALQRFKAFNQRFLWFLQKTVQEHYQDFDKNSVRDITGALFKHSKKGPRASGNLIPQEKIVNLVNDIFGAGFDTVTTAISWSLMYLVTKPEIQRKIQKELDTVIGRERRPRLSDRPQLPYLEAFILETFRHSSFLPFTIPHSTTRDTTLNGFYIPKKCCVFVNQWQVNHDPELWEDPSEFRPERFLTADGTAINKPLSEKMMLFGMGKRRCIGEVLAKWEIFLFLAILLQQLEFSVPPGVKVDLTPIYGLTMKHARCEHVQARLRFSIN

Sequence of cytochrome P450 2C19 (P33261 whole entry): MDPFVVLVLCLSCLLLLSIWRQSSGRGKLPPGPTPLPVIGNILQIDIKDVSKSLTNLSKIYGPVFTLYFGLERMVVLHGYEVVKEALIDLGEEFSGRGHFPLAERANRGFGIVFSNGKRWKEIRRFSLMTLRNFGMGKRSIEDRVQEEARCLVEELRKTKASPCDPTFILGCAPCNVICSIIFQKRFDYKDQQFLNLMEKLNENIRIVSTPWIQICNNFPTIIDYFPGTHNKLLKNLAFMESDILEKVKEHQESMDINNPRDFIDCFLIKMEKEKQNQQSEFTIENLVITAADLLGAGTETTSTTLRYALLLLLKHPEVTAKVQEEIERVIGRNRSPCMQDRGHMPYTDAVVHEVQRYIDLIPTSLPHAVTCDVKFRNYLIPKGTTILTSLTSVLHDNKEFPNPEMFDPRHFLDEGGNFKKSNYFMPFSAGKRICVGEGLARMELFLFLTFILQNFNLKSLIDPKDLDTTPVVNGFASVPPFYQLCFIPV

IC50 (cytochrome P450 2C19) | IC50 (cytochrome P450 1A2) | SMILES
> 10 µM | > 10 µM | Cc1cc(Nc2ncc(Cl)c(Nc3cn(C)nc3S(=O)(=O)CC(C)C)n2)c(OC2CC2)cc1C1CCN(C)CC1 [Final product 57]
> 10 µM | > 10 µM | COCC1CC(c2cc(OC3CC3)c(Nc3ncc(Cl)c(Nc4cn(C)nc4S(=O)(=O)C(C)C)n3)cc2C)CCN1C (centres unmarked) [Final product 77]
> 10 µM | > 10 µM | COCCN1CCC(c2cc(OC3CC3)c(Nc3ncc(Cl)c(Nc4cn(C)nc4S(=O)(=O)C(C)C)n3)cc2C)CC1 [Final product 82]
> 10 µM | > 10 µM | Cc1cc(Nc2ncc(Cl)c(Nc3cn(C)nc3S(=O)(=O)C(C)C)n2)c(OC2CC2)cc1C1CCC(NS(C)(=O)=O)CC1 (centres unmarked) [Final product 205, N-(4-(4-(5-chloro-4-(3-(isopropylsulfonyl)-1-methyl-1H-pyrazol-4-amine)pyrimidin-2-amine)-5-cyclopropoxy-2-methylphenyl)cyclohexyl)methanesulfonamide]
